Experimental data reported in patent publication US11046698B2, “TYK2 inhibitors and uses thereof” (Nimbus Lakshmi, Inc., priority 2017, dated 2021).
Values belong to the compound of their own block, whether it stands above or below them.

Experiments:
[1] = biological target: human TYK2 (JH2domain-pseudokinase) (Homo sapiens (Human), UniProt P29597); test: TYK2 JH2 Domain Binding Assay (KINOMEscan, DiscoveRx)
Method: Binding constants for compounds of the present invention against the JH2 domain were determined by the following protocol for a KINOMEscan® assay (DiscoveRx). A fusion protein of a partial length construct of human TYK2 (JH2domain-pseudokinase) (amino acids G556 to D888 based on reference sequence NP_003322.3) and the DNA binding domain of NFkB was expressed in transiently transfected HEK293 cells. From these HEK 293 cells, extracts were prepared in M-PER extraction buffer (Pierce) in the presence of Protease Inhibitor Cocktail Complete (Roche) and Phosphatase Inhibitor Cocktail Set II (Merck) per manufacturers' instructions. The TYK2(JH2domain-pseudokinase) fusion protein was labeled with a chimeric double-stranded DNA tag containing the NFkB binding site (5′-[…]-3′) fused to an amplicon for qPCR readout, which was added directly to the expression extract (the final concentration of DNA-tag in the binding reaction is 0.1 nM). […]
Extracts were used directly in binding assays without any enzyme purification steps at a ≥10,000-fold overall stock dilution (final DNA-tagged enzyme concentration <0.1 nM). […] Kds were determined using an 11-point 3-fold compound dilution series with three DMSO control points. […]
Kds were determined using an 11-point 3-fold compound dilution series with three DMSO control points. […] The Kds were determined using a compound top concentration of 30,000 nM. […]

JAK2 kinase domain (JH1) = JAK2 kinase domain (JH1) (Homo sapiens (Human), UniProt O60674); test: JAK2 Radioactive Kinase Assay; type: biochemical; details: ATP 10 μM
Method: (§1) The Tyk2 and JAK2 radioactive kinase assay measures the percent inhibiton at the Tyk2 kinase domain (JH1) and the percent inhibiton at the JAK2 kinase domain (JH1). Results of the assay are expressed as percent inhibition at 10 μM.

Tyk2 kinase domain (JH1) = Tyk2 kinase domain (JH1) (Homo sapiens (Human), UniProt P29597); test: Tyk2 Radioactive Kinase Assay; type: biochemical; details: ATP 10 μM
Method: as §1

[2] = test system: GM-CSF induced STAT5 phosphorylation mediated by the JAK2/JAK2 homodimeric complex; test: GM-CSF Induced pSTAT5 in Human PBMC; details: 20 min, read-out: PBMC_GMCSF_pSTAT5 IC50 (μM), human PBMC, GM-CSF 5 ng/mL for 20 minutes, pSTAT5 by MSD
[3] = test system: IL-12 induced STAT4 phophorylation mediated by Tyk2/JAK2 (heterodimeric complex); test: IL-12 Induced pSTAT4 in Human PBMC; type: cell-based; details: 1.7 ng/mL IL-12
Description: The IL-12 Induced pSTAT4 assay evaluates the inhibition of IL-12 induced STAT4 phophorylation mediated by Tyk2/JAK2 (heterodimeric complex).

Chain of Tyk2 kinase domain (JH1) (P29597 897-1176): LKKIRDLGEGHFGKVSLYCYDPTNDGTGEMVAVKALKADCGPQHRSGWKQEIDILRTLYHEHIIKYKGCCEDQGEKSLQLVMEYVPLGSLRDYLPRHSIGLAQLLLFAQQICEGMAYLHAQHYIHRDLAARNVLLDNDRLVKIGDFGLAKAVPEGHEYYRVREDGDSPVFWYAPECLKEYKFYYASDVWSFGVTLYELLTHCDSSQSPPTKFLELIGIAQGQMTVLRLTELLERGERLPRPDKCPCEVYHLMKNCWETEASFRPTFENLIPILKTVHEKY
Chain of JAK2 kinase domain (JH1) (O60674 849-1124): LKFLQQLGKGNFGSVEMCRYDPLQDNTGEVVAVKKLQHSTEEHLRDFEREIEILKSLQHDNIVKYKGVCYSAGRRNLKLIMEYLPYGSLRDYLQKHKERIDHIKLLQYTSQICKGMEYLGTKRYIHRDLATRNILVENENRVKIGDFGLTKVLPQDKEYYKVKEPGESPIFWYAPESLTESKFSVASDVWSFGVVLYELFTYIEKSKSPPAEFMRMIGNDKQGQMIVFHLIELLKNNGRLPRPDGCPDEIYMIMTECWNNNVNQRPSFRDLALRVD
Chain of human TYK2 (JH2domain-pseudokinase) (P29597 556-888): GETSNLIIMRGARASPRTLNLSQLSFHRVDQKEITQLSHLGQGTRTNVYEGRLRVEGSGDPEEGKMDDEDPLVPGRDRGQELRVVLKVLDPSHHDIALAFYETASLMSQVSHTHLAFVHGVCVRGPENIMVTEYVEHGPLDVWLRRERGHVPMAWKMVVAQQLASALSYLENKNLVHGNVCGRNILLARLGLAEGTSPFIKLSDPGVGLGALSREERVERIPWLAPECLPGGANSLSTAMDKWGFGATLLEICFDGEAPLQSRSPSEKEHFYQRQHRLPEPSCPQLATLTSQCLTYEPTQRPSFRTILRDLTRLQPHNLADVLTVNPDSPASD

- inhibition at 10 µM (JAK2 kinase domain (JH1); compound at 10 μM): < 50%
- inhibition at 10 µM (Tyk2 kinase domain (JH1); compound at 10 μM): < 50%
- Kd [1]: < 0.2 nM
- IC50 [2]: > 50 µM
SMILES: CNc1cc(Nc2cccn3ccnc23)cc2c(C(=O)N[C@H]3CC[C@@H]3OC)cnn12 [I-1052]

- inhibition at 10 µM (JAK2 kinase domain (JH1); 10 μM compound): < 50%
- inhibition at 10 µM (Tyk2 kinase domain (JH1); 10 μM compound): < 50%
SMILES: CNc1cc(Nc2cccc([C@@H]3CCCOC3)n2)nc2c(C(=O)N[C@H]3CC[C@@H]3O)cnn12 [I-664]

- IC50 [3]: < 100 nM
SMILES: CNc1cc(-c2cn(C(C)C)c3ncc(F)cc23)nc2c(C(=O)N[C@H]3CC[C@H]3O)cnn12 [I-1387]

- IC50 [3]: < 100 nM
- IC50 [2]: > 12.5 µM
SMILES: CNc1cc(Nc2cc(Cl)cn([C@@H]3CCCOC3)c2=O)nc2c(C(=O)N[C@@H]3C[C@@H]3F)cnn12 [I-773]

- IC50 [3]: < 100 nM
SMILES: CNc1cc(-c2cn([C@H]3CCN(CCF)C3)c3ncccc23)nc2c(C(=O)N[C@@H]3C[C@@H]3F)cnn12 [I-1362]

Second part, the compound before the results:

SMILES: CNc1cc(Nc2cccn([C@H]3CC[C@@H]3OC)c2=O)nc2c(C(=O)NC3CC3)cnn12 [I-936]
- Kd [1]: 0.2 to 1 nM

SMILES: CNc1cc(Nc2cccn([C@H]3CC[C@@H](N4CCOCC4)CC3)c2=O)nc2c(C(=O)N[C@H]3C[C@H]3F)cnn12 [I-304]
- JAK2 JH1% Inhibition @ 10 μM (JAK2 kinase domain (JH1); 10 μM compound): A (had a percent inhibition at 10 μM lower than 50)
- Tyk2 JH1% Inhibition @ 10 μM (Tyk2 kinase domain (JH1); 10 μM compound): A (had a percent inhibition at 10 μM lower than 50)

SMILES: CNc1cc(Nc2cccn([C@H]3CC[C@](C)(OC)CC3)c2=O)nc2c(C(=O)N[C@H]3C[C@H]3F)cnn12 [I-362]
- IC50 [3]: < 100 nM
- IC50 [2]: > 50 µM

SMILES: CNc1cc(Nc2cccnc2OC)nc2c(C(=O)NC3CC4(COC4)C3)cnn12 [I-408]
- inhibition at 10 µM (JAK2 kinase domain (JH1); 10 μM compound): < 50%
- inhibition at 10 µM (Tyk2 kinase domain (JH1); 10 μM compound): < 50%

SMILES: CNc1cc(Nc2cccn([C@H]3CC[C@H](OC)CC3)c2=O)nc2c(C(=O)N[C@H]3COC[C@H]3O)cnn12 [I-746]
- JAK2 JH1% Inhibition @ 10 μM (JAK2 kinase domain (JH1); 10 μM compound): A (had a percent inhibition at 10 μM lower than 50)
- Tyk2 JH1% Inhibition @ 10 μM (Tyk2 kinase domain (JH1); 10 μM compound): A (had a percent inhibition at 10 μM lower than 50)
